Experimental data taken from patent US6114310A, “Efflux pump inhibitors” (priority 1998, dated 2000).

System: Pseudomonas aeruginosa PAM1001
Assay: microbe, parasite or virus in culture
Format: cell-based
Protocol: The activity of efflux pump inhibitors (EPI) in combination with fluoroquinolones, such as levofloxacin, is assessed by the checkerboard assay (Antimicrobial Combinations. In Antibiotics in Laboratory Medicine, Ed. Victor Lorian, M. D., Fourth edition, 1996, pp 333-338) using broth microdilution method performed as recommended by the NCCLS (National Committee for Clinical Laboratory Standards (NCCLS). 1997. Methods for Dilution of Antimicrobial Susceptibility Tests for Bacteria That Grow Aerobically--Fourth Edition; Approved Standard. NCCLS Document M7-A4, Vol 17 No.2). The test organism used is Pseudomonas aeruginosa PAM1001.
In this assay, multiple dilutions of two drugs, namely the EPI and levofloxacin, are being tested, alone and in combination, at concentrations equal to, above and below their respective minimal inhibitory concentrations (MICs).
Stock solutions are further diluted, according to the needs of a particular assay, in Mueller Hinton Broth (MHB). Stock solution can be stored at -80° C. Quinolones are solubilized according to the instructions of the manufacturers, at a concentration of 1 mg/ml. They are then further diluted in MHB. Stock solution can be stored at -80° C.
The checkerboard assay is performed in microtiter plates. Levofloxacin is diluted in the x axis, each column containing a single concentration of levofloxacin. The EPI is diluted in the y axis, each row containing an equal concentration of EPI. The result of these manipulations is that each well of the microtiter plate contains a unique combination of concentrations of the two agents. Each EPI are tested independently.
The assay is performed in MHB with a final bacterial inoculum of 5×10^5 CFU/ml (from an early-log phase culture). Microtiter plates are incubated during 20 h at 35° C. and are read using a microtiterplate reader (Molecular Devices) at 650 nm as well as visual observation using a microtiterplate reading mirror.

[1] = Table 1, EPI Conc. μg/ml (number not given; column between 10 and 40 μg/ml)
[2] = Table 2, EPI Conc. μg/ml (number not given; column between 10 and 40 μg/ml)
[3] = Table 3, EPI Conc. μg/ml (number not given; column between 10 and 40 μg/ml)
[4] = Table 4, EPI Conc. μg/ml (number not given; column between 10 and 40 μg/ml)

Compound	Levofloxacin MIC Against P. aeruginosa PAM1001 in Presence of Efflux Pump Inhibitor (EPI), Minimum Inhibitory Concentration (Table 1, EPI Conc. 0 μg/ml) [µg/mL]	Levofloxacin MIC Against P. aeruginosa PAM1001 in Presence of Efflux Pump Inhibitor (EPI), Minimum Inhibitory Concentration (Table 1, EPI Conc. 0.625 μg/ml) [µg/mL]	Levofloxacin MIC Against P. aeruginosa PAM1001 in Presence of Efflux Pump Inhibitor (EPI), Minimum Inhibitory Concentration (Table 1, EPI Conc. 5 μg/ml) [µg/mL]	Levofloxacin MIC Against P. aeruginosa PAM1001 in Presence of Efflux Pump Inhibitor (EPI), Minimum Inhibitory Concentration (Table 1, EPI Conc. 10 μg/ml) [µg/mL]	Levofloxacin MIC Against P. aeruginosa PAM1001 in Presence of Efflux Pump Inhibitor (EPI), Minimum Inhibitory Concentration (Table 1, EPI Conc. 40 μg/ml) [µg/mL]	Levofloxacin MIC Against P. aeruginosa PAM1001 in Presence of Efflux Pump Inhibitor (EPI), Minimum Inhibitory Concentration (Table 1, EPI Conc. […]) [µg/mL]	Levofloxacin MIC Against P. aeruginosa PAM1001 in Presence of Efflux Pump Inhibitor (EPI), Minimum Inhibitory Concentration [1] [µg/mL]	Levofloxacin MIC Against P. aeruginosa PAM1001 in Presence of Efflux Pump Inhibitor (EPI), Minimum Inhibitory Concentration (Table 2, EPI Conc. 0 μg/ml) [µg/mL]	Levofloxacin MIC Against P. aeruginosa PAM1001 in Presence of Efflux Pump Inhibitor (EPI), Minimum Inhibitory Concentration (Table 2, EPI Conc. 0.625 μg/ml) [µg/mL]	Levofloxacin MIC Against P. aeruginosa PAM1001 in Presence of Efflux Pump Inhibitor (EPI), Minimum Inhibitory Concentration (Table 2, EPI Conc. 5 μg/ml) [µg/mL]	Levofloxacin MIC Against P. aeruginosa PAM1001 in Presence of Efflux Pump Inhibitor (EPI), Minimum Inhibitory Concentration (Table 2, EPI Conc. 10 μg/ml) [µg/mL]	Levofloxacin MIC Against P. aeruginosa PAM1001 in Presence of Efflux Pump Inhibitor (EPI), Minimum Inhibitory Concentration (Table 2, EPI Conc. 40 μg/ml) [µg/mL]	Levofloxacin MIC Against P. aeruginosa PAM1001 in Presence of Efflux Pump Inhibitor (EPI), Minimum Inhibitory Concentration [2] [µg/mL]	Levofloxacin MIC Against P. aeruginosa PAM1001 in Presence of Efflux Pump Inhibitor (EPI), Minimum Inhibitory Concentration (Table 3, EPI Conc. 0 μg/ml) [µg/mL]	Levofloxacin MIC Against P. aeruginosa PAM1001 in Presence of Efflux Pump Inhibitor (EPI), Minimum Inhibitory Concentration (Table 3, EPI Conc. 0.625 μg/ml) [µg/mL]	Levofloxacin MIC Against P. aeruginosa PAM1001 in Presence of Efflux Pump Inhibitor (EPI), Minimum Inhibitory Concentration (Table 3, EPI Conc. 5 μg/ml) [µg/mL]	Levofloxacin MIC Against P. aeruginosa PAM1001 in Presence of Efflux Pump Inhibitor (EPI), Minimum Inhibitory Concentration (Table 3, EPI Conc. 10 μg/ml) [µg/mL]	Levofloxacin MIC Against P. aeruginosa PAM1001 in Presence of Efflux Pump Inhibitor (EPI), Minimum Inhibitory Concentration (Table 3, EPI Conc. 40 μg/ml) [µg/mL]	Levofloxacin MIC Against P. aeruginosa PAM1001 in Presence of Efflux Pump Inhibitor (EPI), Minimum Inhibitory Concentration [3] [µg/mL]	Levofloxacin MIC Against P. aeruginosa PAM1001 in Presence of Efflux Pump Inhibitor (EPI), Minimum Inhibitory Concentration (Table 4, EPI Conc. 0 μg/ml) [µg/mL]	also measured
C[C@H]1COc2c(N3CCN(C)CC3)c(F)cc3c(=O)c(C(=O)O)cn1c23 [levofloxacin, reference compound]	–	–	–	–	–	–	–	–	–	–	–	–	–	–	–	–	–	–	–	–	MIC (Pseudomonas aeruginosa, PAM1001, read-out: MIC of levofloxacin against P. aeruginosa PAM1001): 4 µg/mL
D-Lysyl-β-N-(3,3-Dimethylbutyl)alanine 2-Naphthylamide Trifluoroacetate [Example 30]	4	4	4	2	0.03	4	0.50	4	4	0.25	0.03	0.03	0.03	4	4	0.25	0.015	0.015	0.015	4	Levofloxacin MIC Against P. aeruginosa PAM1001 in Presence of Efflux Pump Inhibitor (EPI), Minimum Inhibitory Concentration (Table 4, EPI Conc. 0.625 μg/ml): 4 µg/mL; Levofloxacin MIC Against P. aeruginosa PAM1001 in Presence of Efflux Pump Inhibitor (EPI), Minimum Inhibitory Concentration (Table 4, EPI Conc. 5 μg/ml): 0.03 µg/mL; Levofloxacin MIC Against P. aeruginosa PAM1001 in Presence of Efflux Pump Inhibitor (EPI), Minimum Inhibitory Concentration (Table 4, EPI Conc. 10 μg/ml): 0.03 µg/mL; Levofloxacin MIC Against P. aeruginosa PAM1001 in Presence of Efflux Pump Inhibitor (EPI), Minimum Inhibitory Concentration (Table 4, EPI Conc. 40 μg/ml): 0.015 µg/mL; Levofloxacin MIC Against P. aeruginosa PAM1001 in Presence of Efflux Pump Inhibitor (EPI), Minimum Inhibitory Concentration [4]: 0.03 µg/mL
D-Lysyl-β-N-(4-Methylphenethyl)alanine Quinoline-2-amide TFA [Example 22]	4	4	2	1	0.125	4	0.125	4	4	1	0.25	0.03	0.06	4	4	1	0.125	0.06	0.03	4	Levofloxacin MIC Against P. aeruginosa PAM1001 in Presence of Efflux Pump Inhibitor (EPI), Minimum Inhibitory Concentration (Table 2, EPI Conc. […]): 4 µg/mL; Levofloxacin MIC Against P. aeruginosa PAM1001 in Presence of Efflux Pump Inhibitor (EPI), Minimum Inhibitory Concentration (Table 4, EPI Conc. 0.625 μg/ml): 4 µg/mL; Levofloxacin MIC Against P. aeruginosa PAM1001 in Presence of Efflux Pump Inhibitor (EPI), Minimum Inhibitory Concentration (Table 4, EPI Conc. 5 μg/ml): 4 µg/mL; Levofloxacin MIC Against P. aeruginosa PAM1001 in Presence of Efflux Pump Inhibitor (EPI), Minimum Inhibitory Concentration (Table 4, EPI Conc. 10 μg/ml): 2 µg/mL; Levofloxacin MIC Against P. aeruginosa PAM1001 in Presence of Efflux Pump Inhibitor (EPI), Minimum Inhibitory Concentration (Table 4, EPI Conc. 40 μg/ml): 0.50 µg/mL; Levofloxacin MIC Against P. aeruginosa PAM1001 in Presence of Efflux Pump Inhibitor (EPI), Minimum Inhibitory Concentration (Table 4, EPI Conc. […]): 4 µg/mL; Levofloxacin MIC Against P. aeruginosa PAM1001 in Presence of Efflux Pump Inhibitor (EPI), Minimum Inhibitory Concentration [4]: 1 µg/mL
